Conditions: for mass density: 700 kPa, Gamma attenuation method; for viscosity: Capillary tube (Ostwald / Ubbelohde) method

C1C[C@@H]2[C@H]3CC[C@H](C3)[C@@H]2C1 [exo-tetrahydrodicyclopentadiene]
Conditions	mass density [kg/m3]
239.8 K, Liquid	965.9
266.2 K, Liquid	955.9
290.9 K, Liquid	945.8
307 K, Liquid	936.3
337.1 K, Liquid	917.3
368.4 K, Liquid	890
391.9 K, Liquid	877.6
428.7 K, Liquid	857.3
468.5 K, Liquid	818.7
483.8 K, Liquid	779.5
510 K, Liquid	759.3
532.4 K, Liquid	737.7
562.1 K, Liquid	646.3
603.4 K, Gas	25.5
651.6 K, Gas	22.9
682.7 K, Gas	29.4
730.2 K, Gas	19.5
744.7 K, Gas	19.7
771.9 K, Gas	26.4
803.3 K, Gas	24.4
833 K, Gas	25.4
873.3 K, Gas	24.4

Conditions	viscosity [mPa·s]
242.7 K, 690 kPa, Liquid	10.69
242.7 K, 1700 kPa, Liquid	10.73
242.7 K, 3000 kPa, Liquid	10.8
242.7 K, 6000 kPa, Liquid	10.82
262.4 K, 690 kPa, Liquid	5.78
262.4 K, 1700 kPa, Liquid	5.82
262.5 K, 3000 kPa, Liquid	5.828
262.5 K, 6000 kPa, Liquid	5.888
303.1 K, 3000 kPa, Liquid	2.49
303.1 K, 6000 kPa, Liquid	2.498
303.2 K, 690 kPa, Liquid	2.479
303.2 K, 1700 kPa, Liquid	2.483
313.1 K, 690 kPa, Liquid	1.996
313.2 K, 1700 kPa, Liquid	2.026
313.2 K, 3000 kPa, Liquid	2.146
313.2 K, 6000 kPa, Liquid	2.186
333.1 K, 3000 kPa, Liquid	1.709
333.1 K, 6000 kPa, Liquid	1.758
333.2 K, 690 kPa, Liquid	1.68
333.2 K, 1700 kPa, Liquid	1.701
353.1 K, 690 kPa, Liquid	1.142
353.1 K, 3000 kPa, Liquid	1.234
353.1 K, 6000 kPa, Liquid	1.268
353.2 K, 1700 kPa, Liquid	1.165
373.1 K, 690 kPa, Liquid	0.8868
373.1 K, 1700 kPa, Liquid	0.9068
373.2 K, 3000 kPa, Liquid	0.9467
373.2 K, 6000 kPa, Liquid	0.9789
393 K, 3000 kPa, Liquid	0.7365
393.1 K, 1700 kPa, Liquid	0.7265
393.2 K, 690 kPa, Liquid	0.7065
393.4 K, 6000 kPa, Liquid	0.7661
412.9 K, 3000 kPa, Liquid	0.5811
413.1 K, 1700 kPa, Liquid	0.5518
413.1 K, 6000 kPa, Liquid	0.6028
413.2 K, 690 kPa, Liquid	0.5267
433.1 K, 1700 kPa, Liquid	0.4372
433.1 K, 3000 kPa, Liquid	0.4776
433.2 K, 690 kPa, Liquid	0.4172
433.2 K, 6000 kPa, Liquid	0.4992
453.1 K, 690 kPa, Liquid	0.3605
453.1 K, 1700 kPa, Liquid	0.4005
453.1 K, 6000 kPa, Liquid	0.4321
453.2 K, 3000 kPa, Liquid	0.3903
473.1 K, 6000 kPa, Liquid	0.3675
473.2 K, 690 kPa, Liquid	0.3123
473.2 K, 1700 kPa, Liquid	0.3003
473.2 K, 3000 kPa, Liquid	0.3204
493.1 K, 6000 kPa, Liquid	0.3055
493.2 K, 690 kPa, Liquid	0.2255
493.2 K, 1700 kPa, Liquid	0.2552
493.2 K, 3000 kPa, Liquid	0.2752
513.1 K, 6000 kPa, Liquid	0.2964
513.2 K, 690 kPa, Liquid	0.2054
513.2 K, 1700 kPa, Liquid	0.2204
513.2 K, 3000 kPa, Liquid	0.2264
533.2 K, 690 kPa, Liquid	0.1602
533.2 K, 1700 kPa, Liquid	0.1809
533.4 K, 3000 kPa, Liquid	0.1837
533.4 K, 6000 kPa, Liquid	0.2139
552.9 K, 690 kPa, Liquid	0.1309
552.9 K, 1700 kPa, Liquid	0.1509
553.3 K, 6000 kPa, Liquid	0.1899
553.5 K, 3000 kPa, Liquid	0.1502
573.3 K, 6000 kPa, Liquid	0.1554
573.4 K, 690 kPa, Gas	0.0304
573.4 K, 1700 kPa, Liquid	0.1254
573.4 K, 3000 kPa, Liquid	0.1354
593.2 K, 690 kPa, Gas	0.0324
593.2 K, 1700 kPa, Gas	0.0394
593.2 K, 6000 kPa, Liquid	0.1453
593.3 K, 3000 kPa, Gas	0.1154
613 K, 3000 kPa, Gas	0.1016
613.4 K, 6000 kPa, Liquid	0.1316
613.6 K, 690 kPa, Gas	0.0288
613.6 K, 1700 kPa, Gas	0.0389
633.3 K, 3000 kPa, Gas	0.0977
633.3 K, 6000 kPa, Liquid	0.1177
633.4 K, 690 kPa, Gas	0.0338
633.4 K, 1700 kPa, Gas	0.0371
653.3 K, 690 kPa, Gas	0.0277
653.3 K, 1700 kPa, Gas	0.0328
653.4 K, 3000 kPa, Gas	0.0898
653.5 K, 6000 kPa, Liquid	0.0991
672.3 K, 3000 kPa, Gas	0.0804
673.2 K, 6000 kPa, Liquid	0.0956
673.3 K, 690 kPa, Gas	0.0265
673.3 K, 1700 kPa, Gas	0.0302
692.5 K, 690 kPa, Gas	0.0311
692.5 K, 1700 kPa, Gas	0.0321
692.5 K, 3000 kPa, Gas	0.0768
692.5 K, 6000 kPa, Liquid	0.0927
713.8 K, 690 kPa, Gas	0.0276
713.8 K, 1700 kPa, Gas	0.0294
713.8 K, 3000 kPa, Gas	0.0689
713.8 K, 6000 kPa, Gas	0.0889
734 K, 690 kPa, Gas	0.0303
734 K, 1700 kPa, Gas	0.0324
734 K, 3000 kPa, Gas	0.0645
734 K, 6000 kPa, Gas	0.0844
753.3 K, 690 kPa, Gas	0.0324
753.3 K, 1700 kPa, Gas	0.0352
753.3 K, 3000 kPa, Gas	0.0628
753.3 K, 6000 kPa, Gas	0.0828

CCCCCCCC [octane]
5100 kPa, Liquid
Conditions	viscosity [mPa·s]
303.2 K	0.5014
353.1 K	0.3078
403.2 K	0.207
453.1 K	0.1465
503 K	0.1049
553.4 K	0.0692

From the NIST ThermoML archive (doi:10.1021/acs.jced.7b00396)
